Values after ≈ are worked out from the molar mass of the structure shown.
What was measured:
Mus musculus [1] = assay: In vitro antimalarial activity against chloroquine-resistant (Smith) isolates of Plasmodium falciparum at dose 160 mg/kg in mice (Mus musculus); format: functional
Mus musculus [2] = assay: In vivo toxicity against chloroquine-resistant (Smith) isolates of Plasmodium berghei in mice (Mus musculus); format: functional

| SMILES | ED50 (Mus musculus [1]) [ng/mL] | Toxicity (Mus musculus [2]) [mg/kg] |
| --- | --- | --- |
| C[C@@H]1CC[C@H]2[C@@H](C)C(=O)O[C@@H]3O[C@@]4(C)CC[C@@H]1[C@]32OO4 [ARTEMISININ] | <3.4 | – |
| CC1=C[C@H]2C[C@]3(C)CC[C@H]4[C@H](C)C(=O)O[C@@H]4C13OO2 (single isomer, unassigned) | 728.59 (≈ 2.76 µM) | 640 |
